Results taken from ChEMBL document CHEMBL5257016, “Rho Kinase (ROCK) Inhibitors and Their Therapeutic Potential” (J Med Chem, 2016).

How the values were obtained:
[1] = biological target: T1, Rho-associated protein kinase 2 (Homo sapiens, UniProt O75116); assay: Inhibition of ROCK2 (unknown origin) using STK2 as substrate incubated for 4 hrs by HTRF assay
[2] = biological target: T1, Rho-associated protein kinase 2; assay: Inhibition of human recombinant ROCK2 assessed as inhibition constant by microfluidic mobility shift method
[3] = biological target: Nicotinamide phosphoribosyltransferase (Homo sapiens, UniProt P43490); assay: Inhibition of recombinant human C-terminally-His tagged NAMPT incubated for 2 to 3 hrs by TR-FRET assay
Sequence of Nicotinamide phosphoribosyltransferase (P43490 whole entry): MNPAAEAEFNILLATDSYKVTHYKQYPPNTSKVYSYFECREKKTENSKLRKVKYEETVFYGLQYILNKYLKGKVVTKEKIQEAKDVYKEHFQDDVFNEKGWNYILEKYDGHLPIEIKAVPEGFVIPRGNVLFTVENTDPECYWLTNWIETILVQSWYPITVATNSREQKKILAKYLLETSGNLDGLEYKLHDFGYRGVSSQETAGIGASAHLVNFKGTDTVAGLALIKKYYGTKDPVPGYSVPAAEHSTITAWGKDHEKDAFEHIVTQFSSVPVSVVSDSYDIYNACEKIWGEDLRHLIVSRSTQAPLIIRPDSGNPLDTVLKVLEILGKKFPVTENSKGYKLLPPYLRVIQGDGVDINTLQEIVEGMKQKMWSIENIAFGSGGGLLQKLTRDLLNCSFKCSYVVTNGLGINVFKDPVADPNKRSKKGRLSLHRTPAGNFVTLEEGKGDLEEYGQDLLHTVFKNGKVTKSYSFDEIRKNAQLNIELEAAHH

[4] = biological target: T2, Rho-associated protein kinase 1 (Homo sapiens, UniProt Q13464); assay: Inhibition of ROCK1 (unknown origin) assessed as inhibition constant
T2 sequence (Q13464 whole entry): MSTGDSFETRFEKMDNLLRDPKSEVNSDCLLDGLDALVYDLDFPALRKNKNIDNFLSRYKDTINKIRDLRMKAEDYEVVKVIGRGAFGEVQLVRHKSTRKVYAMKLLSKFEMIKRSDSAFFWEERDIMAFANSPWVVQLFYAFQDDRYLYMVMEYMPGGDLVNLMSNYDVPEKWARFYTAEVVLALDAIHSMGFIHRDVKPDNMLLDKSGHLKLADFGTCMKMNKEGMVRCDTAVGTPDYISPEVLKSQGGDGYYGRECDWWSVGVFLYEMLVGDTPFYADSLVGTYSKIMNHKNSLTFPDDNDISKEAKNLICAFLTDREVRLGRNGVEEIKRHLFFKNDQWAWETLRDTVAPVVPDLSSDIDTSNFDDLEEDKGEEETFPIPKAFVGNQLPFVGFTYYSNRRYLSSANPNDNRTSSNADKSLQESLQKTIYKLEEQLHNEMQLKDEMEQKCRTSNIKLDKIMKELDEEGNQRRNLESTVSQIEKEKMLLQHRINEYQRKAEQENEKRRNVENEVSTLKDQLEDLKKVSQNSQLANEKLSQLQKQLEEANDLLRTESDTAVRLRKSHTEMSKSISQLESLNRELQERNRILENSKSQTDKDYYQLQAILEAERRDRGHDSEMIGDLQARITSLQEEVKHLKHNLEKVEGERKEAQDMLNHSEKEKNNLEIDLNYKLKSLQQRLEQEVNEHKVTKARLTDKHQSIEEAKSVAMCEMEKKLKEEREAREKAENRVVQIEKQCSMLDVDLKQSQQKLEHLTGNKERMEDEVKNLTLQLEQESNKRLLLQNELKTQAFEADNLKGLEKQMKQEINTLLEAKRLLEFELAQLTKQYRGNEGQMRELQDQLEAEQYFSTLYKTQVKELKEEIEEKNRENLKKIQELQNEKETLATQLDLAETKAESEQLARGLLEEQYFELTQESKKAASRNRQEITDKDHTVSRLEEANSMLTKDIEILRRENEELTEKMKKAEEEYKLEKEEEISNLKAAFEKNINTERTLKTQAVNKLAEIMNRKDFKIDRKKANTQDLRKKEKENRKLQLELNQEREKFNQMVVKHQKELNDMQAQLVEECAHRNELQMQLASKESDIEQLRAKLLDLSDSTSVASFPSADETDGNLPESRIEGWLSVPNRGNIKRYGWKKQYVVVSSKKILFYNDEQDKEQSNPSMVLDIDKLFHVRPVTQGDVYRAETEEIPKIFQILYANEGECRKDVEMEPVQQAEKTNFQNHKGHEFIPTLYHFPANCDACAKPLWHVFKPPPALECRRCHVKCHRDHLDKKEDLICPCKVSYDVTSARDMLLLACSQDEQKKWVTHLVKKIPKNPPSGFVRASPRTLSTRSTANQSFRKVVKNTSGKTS

[5] = biological target: T1, Rho-associated protein kinase 2; assay: Inhibition of ROCK2 (unknown origin) assessed as inhibition constant
[6] = biological target: cAMP-dependent protein kinase (PKA) (Homo sapiens, UniProt P22694+P17612+P22612); assay: Inhibition of PKA (unknown origin); format: protein assay
[7] = Induction of neurogenesis in human Embryonic stem cells assessed as cell proliferation incubated for 4 days by CellTiterGlo luminescence assay; format: functional, cell-based; conditions: 96 h
[8] = Half life of Wistar rat at 0.910 mg/kg, po and measured upto 7 hrs by HPLC/MS analysis; format: ADME, organism-based; conditions: in vivo, dose 0.91 mg/kg
[9] = Clearance of Wistar rat at 0.910 mg/kg, po and measured upto 7 hrs by HPLC/MS analysis; format: ADME, organism-based; conditions: in vivo, dose 0.91 mg/kg
[10] = Oral bioavailability of Wistar rat at 0.910 mg/kg and measured upto 7 hrs by HPLC/MS analysis; format: ADME, organism-based; conditions: in vivo, dose 0.91 mg/kg
[11] = biological target: T1, Rho-associated protein kinase 2; assay: Inhibition of ROCK2 (unknown origin)
[12] = biological target: RAC-beta serine/threonine-protein kinase (Homo sapiens, UniProt P31751); assay: Inhibition of AKT2 (unknown origin)
Sequence of RAC-beta serine/threonine-protein kinase (P31751 whole entry): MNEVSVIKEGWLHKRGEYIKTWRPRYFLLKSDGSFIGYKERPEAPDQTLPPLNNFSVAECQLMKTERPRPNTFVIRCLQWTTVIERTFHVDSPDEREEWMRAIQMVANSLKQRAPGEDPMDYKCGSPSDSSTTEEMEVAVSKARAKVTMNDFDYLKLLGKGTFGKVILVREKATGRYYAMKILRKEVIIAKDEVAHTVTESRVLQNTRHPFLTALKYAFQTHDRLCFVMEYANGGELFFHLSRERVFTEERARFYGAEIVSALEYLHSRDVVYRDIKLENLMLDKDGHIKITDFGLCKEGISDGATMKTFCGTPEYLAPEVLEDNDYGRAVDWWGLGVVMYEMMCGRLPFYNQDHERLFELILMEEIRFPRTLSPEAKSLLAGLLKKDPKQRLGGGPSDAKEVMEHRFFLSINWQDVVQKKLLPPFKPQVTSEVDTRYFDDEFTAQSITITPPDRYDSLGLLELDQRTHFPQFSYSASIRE

[13] = biological target: T2, Rho-associated protein kinase 1; assay: Inhibition of ROCK1 (unknown origin)
[14] = Inhibition of p70S6K (unknown origin); set-up: species or system Homo sapiens
[15] = biological target: RAC-alpha serine/threonine-protein kinase (Homo sapiens, UniProt P31749); assay: Inhibition of AKT1 (unknown origin)
Sequence of RAC-alpha serine/threonine-protein kinase (P31749 whole entry): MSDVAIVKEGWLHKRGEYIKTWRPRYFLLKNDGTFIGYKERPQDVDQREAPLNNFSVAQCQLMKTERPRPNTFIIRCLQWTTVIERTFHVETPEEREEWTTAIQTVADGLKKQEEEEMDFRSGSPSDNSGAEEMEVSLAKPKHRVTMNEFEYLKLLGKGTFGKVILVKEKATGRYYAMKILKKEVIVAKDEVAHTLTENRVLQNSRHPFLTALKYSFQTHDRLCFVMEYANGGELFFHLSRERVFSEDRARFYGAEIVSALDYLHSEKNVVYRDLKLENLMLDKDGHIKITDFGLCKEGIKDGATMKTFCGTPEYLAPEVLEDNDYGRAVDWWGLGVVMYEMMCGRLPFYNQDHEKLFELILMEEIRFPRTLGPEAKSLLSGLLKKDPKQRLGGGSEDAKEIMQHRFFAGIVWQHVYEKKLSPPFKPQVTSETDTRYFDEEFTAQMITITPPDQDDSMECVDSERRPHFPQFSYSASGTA

[16] = biological target: Ribosomal protein S6 kinase alpha-1 (Homo sapiens, UniProt Q15418); assay: Inhibition of RSK1 (unknown origin)
Sequence of Ribosomal protein S6 kinase alpha-1 (Q15418 whole entry): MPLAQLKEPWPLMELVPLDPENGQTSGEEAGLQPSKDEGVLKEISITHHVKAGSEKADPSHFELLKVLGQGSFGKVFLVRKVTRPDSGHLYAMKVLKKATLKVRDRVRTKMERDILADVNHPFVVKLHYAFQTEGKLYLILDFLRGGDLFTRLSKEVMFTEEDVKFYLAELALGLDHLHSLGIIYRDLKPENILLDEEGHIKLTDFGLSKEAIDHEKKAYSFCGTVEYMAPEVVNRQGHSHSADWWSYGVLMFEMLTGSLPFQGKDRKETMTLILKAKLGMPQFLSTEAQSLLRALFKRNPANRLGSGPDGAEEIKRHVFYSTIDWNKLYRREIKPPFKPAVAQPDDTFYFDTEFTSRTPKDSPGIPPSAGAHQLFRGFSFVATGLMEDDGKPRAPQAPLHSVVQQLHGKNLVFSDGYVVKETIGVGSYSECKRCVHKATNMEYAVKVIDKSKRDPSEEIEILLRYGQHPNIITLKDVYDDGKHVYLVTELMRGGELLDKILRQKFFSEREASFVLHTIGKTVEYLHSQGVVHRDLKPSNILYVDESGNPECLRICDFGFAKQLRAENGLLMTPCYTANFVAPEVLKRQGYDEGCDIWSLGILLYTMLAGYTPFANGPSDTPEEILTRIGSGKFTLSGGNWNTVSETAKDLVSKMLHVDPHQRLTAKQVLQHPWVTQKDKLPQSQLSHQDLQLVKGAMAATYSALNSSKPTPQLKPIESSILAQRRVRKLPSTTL

[17] = biological target: T1, Rho-associated protein kinase 2; assay: Inhibition of human recombinant ROCK2 using 5FAM-AKRRRLSSLRA-COOH as substrate preincubated for 10 mins followed by substrate addition in presence of ATP and measured after 45 mins by TR-FRET assay
[18] = biological target: T2, Rho-associated protein kinase 1; assay: Inhibition of human ROCK1
[19] = biological target: T2, Rho-associated protein kinase 1; assay: Inhibition of GST-tagged ROCK1 (1 to 535 residues) (unknown origin) using S6-peptide as substrate preincubated for 15 mins followed by 33P-ATP addition and measured after 120 mins by scintillation counter analysis
[20] = biological target: T1, Rho-associated protein kinase 2; assay: Inhibition of GST-tagged ROCK2 (5 to 554 residues) (unknown origin) using S6-peptide as substrate preincubated for 15 mins followed by 33P-ATP addition and measured after 120 mins by scintillation counter analysis
Mus musculus [21] = species: Mus musculus; assay: Antidiabetic activity in oxygen induced retinopathy mouse model assessed as decrease in pathological neovascularization at 0.8 %, thrice daily for 6 days by microscopic analysis; format: functional; set-up: scale not given: the % may be the effect or the level left; conditions: time 6 day
Mus musculus [22] = species: Mus musculus; assay: Antidiabetic activity in oxygen induced retinopathy mouse model assessed as decrease in pathological neovascularization at 0.4 %, thrice daily for 6 days by microscopic analysis; format: functional; set-up: scale not given: the % may be the effect or the level left; conditions: time 6 day
Mus musculus [23] = species: Mus musculus; assay: Antidiabetic activity in oxygen induced retinopathy mouse model assessed as decrease in fluorescein leakage at 0.8 %, thrice daily for 6 days by fluorescein angiography; format: functional; set-up: scale not given: the % may be the effect or the level left; conditions: time 6 day
[24] = biological target: T2, Rho-associated protein kinase 1; assay: Inhibition of human recombinant ROCK1 using S6-peptide as substrate as substrate preincubated for 10 mins followed by 33P-labeled ATP addition and measured after 20 mins by Micro-Beta counter analysis
[25] = biological target: Rho-associated protein kinase 2 (Rattus norvegicus, UniProt Q62868); assay: Inhibition of ROCK2 in rat A7R5 cells assessed as MLC phosphorylation at T18/S19 by ELISA; format: cell-based
[26] = Stability of compound in human plasma assessed as half life at 1 uM by LC-MS/MS analysis; format: ADME, cell-free
[27] = biological target: T1, Rho-associated protein kinase 2; assay: Inhibition of ROCK2 (unknown origin) using 33P-ATP as substrate and measured after 120 mins by radiometric analysis

T1 sequence (O75116 whole entry): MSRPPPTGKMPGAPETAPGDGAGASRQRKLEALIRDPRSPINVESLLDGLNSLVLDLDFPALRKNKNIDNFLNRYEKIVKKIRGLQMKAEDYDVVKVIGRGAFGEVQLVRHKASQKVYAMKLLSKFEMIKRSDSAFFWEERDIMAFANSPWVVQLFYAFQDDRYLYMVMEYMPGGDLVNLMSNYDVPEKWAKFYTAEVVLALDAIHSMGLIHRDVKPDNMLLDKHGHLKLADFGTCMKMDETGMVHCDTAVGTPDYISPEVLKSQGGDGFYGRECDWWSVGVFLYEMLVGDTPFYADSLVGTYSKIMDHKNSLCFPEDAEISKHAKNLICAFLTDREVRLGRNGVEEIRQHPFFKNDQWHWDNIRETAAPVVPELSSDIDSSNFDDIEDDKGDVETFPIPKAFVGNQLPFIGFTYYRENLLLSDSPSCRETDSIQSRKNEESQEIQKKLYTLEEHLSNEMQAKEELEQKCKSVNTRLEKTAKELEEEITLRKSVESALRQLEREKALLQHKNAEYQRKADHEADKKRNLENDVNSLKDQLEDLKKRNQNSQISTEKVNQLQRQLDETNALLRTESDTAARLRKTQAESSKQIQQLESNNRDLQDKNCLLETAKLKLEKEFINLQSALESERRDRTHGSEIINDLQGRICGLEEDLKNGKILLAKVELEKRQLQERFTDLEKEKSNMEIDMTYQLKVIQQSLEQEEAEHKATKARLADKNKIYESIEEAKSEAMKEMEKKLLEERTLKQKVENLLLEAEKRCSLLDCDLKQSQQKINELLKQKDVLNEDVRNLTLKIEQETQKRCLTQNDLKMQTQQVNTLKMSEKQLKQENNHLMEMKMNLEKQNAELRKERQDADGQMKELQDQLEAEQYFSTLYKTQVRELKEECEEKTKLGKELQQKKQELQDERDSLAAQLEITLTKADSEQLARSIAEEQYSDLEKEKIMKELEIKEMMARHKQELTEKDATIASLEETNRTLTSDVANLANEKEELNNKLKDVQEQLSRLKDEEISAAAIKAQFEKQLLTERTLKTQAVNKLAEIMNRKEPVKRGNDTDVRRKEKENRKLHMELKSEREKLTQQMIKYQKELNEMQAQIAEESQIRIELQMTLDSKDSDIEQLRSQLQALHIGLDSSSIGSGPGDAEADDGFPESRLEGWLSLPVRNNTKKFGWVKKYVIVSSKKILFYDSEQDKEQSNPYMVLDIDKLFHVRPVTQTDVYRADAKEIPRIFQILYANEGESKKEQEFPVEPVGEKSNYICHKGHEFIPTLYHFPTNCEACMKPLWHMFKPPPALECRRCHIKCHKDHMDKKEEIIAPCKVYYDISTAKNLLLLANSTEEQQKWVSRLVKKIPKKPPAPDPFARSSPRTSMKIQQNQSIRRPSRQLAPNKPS

COc1cccc(CNC(=O)c2c[nH]c3ccc(-c4cn[nH]c4)cc23)c1
IC50 [1]: 67 nM

O=c1[nH]ccc2cc(OC3CCNCC3)ccc12 [SAR-407899 FREE BASE]
Ki [2]: 36 nM

O=C(Nc1ccc(-c2n[nH]c(=O)c3c2CCCC3)cc1)N1Cc2ccc(F)cc2C1
IC50 [3]: 45 nM

OCCOc1cccc(CN2CC[C@@H](Nc3cccc4cnccc34)C2)c1
Ki [4]: 5 nM | Ki [5]: 14 nM

COc1cccc(CNC(=O)c2cc3cc(-c4cn[nH]c4)ccc3[nH]2)c1
IC50 [1]: 17 nM | IC50 [6]: > 20000 nM

COc1cc(-c2cn[nH]c2)ccc1NC(=O)CCc1ccccc1
IC50 [7]: 84 nM

Cc1c[nH]c2nccc(Oc3c(F)cc(Nc4cc(Cl)nc(N)n4)cc3F)c12 [BAY-549]
half-life [8]: 1.2 h | CL/F [9]: 28.3 mL/min/kg | bioavailability [10]: 48%

COc1cccc(CN(CCN(C)C)C(=O)c2n[nH]c3cc(-c4cn[nH]c4)ccc23)c1
IC50 [1]: < 1 nM | IC50 [6]: 184 nM

COc1cccc(CNC(=O)c2cc3ccc(-c4cn[nH]c4)cc3[nH]2)c1
IC50 [1]: 1.6 nM | IC50 [6]: 6740 nM

O=C(Cc1ccccc1Cl)Nc1ccc(-c2cn[nH]c2)cc1OCCN1CCCC1
IC50 [11]: 9 nM

C[C@@H](N)c1ccc(C(=O)Nc2ccncc2)cc1
IC50 [11]: 200 nM

O=C(NCc1c(Cl)cccc1Cl)Nc1ccc2[nH]ncc2c1
IC50 [11]: 20 nM

O=C(Nc1ccc(-c2cn[nH]c2)cc1)OCc1ccccc1
IC50 [6]: > 20000 nM

NC[C@@](O)(c1ccc(Cl)cc1)c1ccc(-c2cn[nH]c2)cc1 [AT-13148]
IC50 [12]: 402 nM | IC50 [13]: < 10 nM | IC50 [14]: < 10 nM | IC50 [15]: 38 nM | IC50 [6]: < 10 nM | IC50 [11]: < 10 nM | IC50 [16]: 85 nM

COc1cccc(CNC(=O)c2c[nH]c3cc(-c4cn[nH]c4)ccc23)c1
IC50 [1]: < 1 nM | IC50 [6]: 3340 nM

COc1cccc(CNC(=O)c2nn(C)c3cc(-c4cn[nH]c4)ccc23)c1
IC50 [1]: < 1 nM | IC50 [6]: 1520 nM

COc1nc(Nc2ccc3[nH]ncc3c2)nc(N2CCNCC2)n1
IC50 [17]: 20 nM

C[C@@H](N)[C@H]1CC[C@H](C(=O)Nc2ccnc3[nH]ccc23)CC1
Ki [5]: 10 nM

O=C(Nc1ccc(-c2ccncc2)cc1)N[C@@H](CO)c1ccccc1
IC50 [18]: 85 nM

N#Cc1c[nH]c2nccc(Oc3c(F)cc(Nc4ccnc(N)n4)cc3F)c12
IC50 [11]: 1 nM

NCc1ccc(Oc2ccc3c(c2)B(O)OC3)c(Cl)c1
IC50 [19]: 730 nM | IC50 [20]: 340 nM

Cc1nnnn1-c1ccc(C(=O)NCc2cccc(C(=O)NC3=NC4CCN(C)CC4S3)c2)cc1 (stereo unspecified)
IC50 [11]: 6 nM

C[C@H]1CNCCCN1S(=O)(=O)c1cccc2cncc(F)c12
Activity (Mus musculus [21]): 41.9% | Activity (Mus musculus [22]): 23% | Activity (Mus musculus [23]): 58.4%

O=C(Nc1ccc(-c2cn[nH]c2)cc1)[C@@H]1CNC[C@H]1c1ccccc1
IC50 [11]: 33 nM

COc1cccc(CNC(=O)c2n[nH]c3cc(-c4cn[nH]c4)ccc23)c1
IC50 [1]: < 1 nM | IC50 [6]: 3340 nM

COc1cccc(CNC(=O)c2[nH]c3cc(-c4cn[nH]c4)ccc3c2CN(C)C)c1
IC50 [6]: 1510 nM

Nc1nc(Nc2ccc(Oc3ccc4[nH]ncc4c3)c(F)c2)cc(-c2ccncc2)n1
IC50 [24]: 20 nM

COc1cccc(CNC(=O)c2nc3ccc(-c4cn[nH]c4)cc3[nH]2)c1
IC50 [1]: 4 nM | IC50 [6]: 1530 nM

Nc1nc(Nc2ccc(Oc3ccc4[nH]ncc4c3)c(F)c2)cc(N2C[C@@H]3CCCN[C@@H]3C2)n1
IC50 [24]: 6 nM

NCc1ccc(Oc2ccc3c(c2)B(O)OC3)c(F)c1
IC50 [19]: 810 nM | IC50 [20]: 540 nM

COc1cccc(CNC(=O)c2n[nH]c3ccc(-c4cn[nH]c4)cc23)c1
IC50 [1]: 67 nM

O=C(OCC1CCCO1)c1cccc(CN2CCCC(Nc3ccc4[nH]ncc4c3)C2)c1 (stereo unspecified)
IC50 [25]: 240 nM | half-life at 1 µM [26]: < 5 min | IC50 [27]: 3 nM

NC(=O)c1cc(F)c(N[C@H]2CC[C@H](N)CC2)cc1F
IC50 [11]: 26 nM

O=C(Nc1ccc(-c2n[nH]c(=O)c3c2CCCC3)cc1)N1Cc2ccc(Cl)cc2C1
IC50 [3]: 44 nM

Cc1c(Oc2ccc(CN)cc2F)ccc2c1B(O)OC2
IC50 [19]: 250 nM | IC50 [20]: 220 nM

O=C(NCc1cccc(O)c1)Nc1nc(-c2ccncc2)cs1
IC50 [13]: 14.5 nM

COc1cccc(CN(C(=O)c2n[nH]c3cc(-c4cn[nH]c4)ccc23)C2CC2)c1
IC50 [1]: 6 nM | IC50 [6]: > 20000 nM
